This experiment deals with P388 leukemia ip, CD2F1 mice, survival T/C. The experiment in a line: NCI In Vivo Anticancer Drug Screen. Data for tumor model P388 Leukemia (intraperitoneal) in CD2F1 (CDF1) mice. Particulars: endpoint: median survival time, higher = longer survival. A digest of the protocol:
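Mice carrying the transplanted tumor received test compound or vehicle. Survival was recorded in each group, and the value is the treated-group measurement divided by that of the vehicle-treated control group.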

Where [1] appears, read: dose: 50.0 mg/kg/injection, schedule: Q01DX005 (ip), vehicle: Klucel (hydroxypropylcellulose) (HPC).
The mark [2] stands for this setting: dose: 100.0 mg/kg/injection, schedule: Q01DX005 (ip), vehicle: Klucel (hydroxypropylcellulose) (HPC).
The mark [3] stands for this setting: dose: 200.0 mg/kg/injection, schedule: Q01DX005 (ip), vehicle: Klucel (hydroxypropylcellulose) (HPC).
[4] abbreviates: dose: 50.0 mg/kg/injection, schedule: Q01DX009 (ip), vehicle: Klucel (hydroxypropylcellulose) (HPC).
Where [5] appears, read: dose: 100.0 mg/kg/injection, schedule: Q01DX009 (ip), vehicle: Klucel (hydroxypropylcellulose) (HPC).
Setting [6] is: dose: 50.0 mg/kg/injection, schedule: Q01DX009 (ip), vehicle: saline with Tween-80.
Where [7] appears, read: dose: 100.0 mg/kg/injection, schedule: Q01DX009 (ip), vehicle: saline with Tween-80.
Where [8] appears, read: dose: 200.0 mg/kg/injection, schedule: Q01DX009 (ip), vehicle: saline with Tween-80.
The mark [9] stands for this setting: dose: 25.0 mg/kg/injection, schedule: Q01DX009 (ip), vehicle: saline.
[10] abbreviates: dose: 50.0 mg/kg/injection, schedule: Q01DX009 (ip), vehicle: saline.
The mark [11] stands for this setting: dose: 100.0 mg/kg/injection, schedule: Q01DX009 (ip), vehicle: saline.
[12] abbreviates: dose: 50.0 mg/kg/injection, schedule: Q01DX005 (ip), vehicle: saline.
Where [13] appears, read: dose: 100.0 mg/kg/injection, schedule: Q01DX005 (ip), vehicle: saline.
Setting [14] is: dose: 200.0 mg/kg/injection, schedule: Q01DX009 (ip), vehicle: Klucel (hydroxypropylcellulose) (HPC).

Several values for one entry are separate records, joined by “and”; a condition that tells them apart may be missing. Identical values can stand only once. Inconclusive results and toxic doses are left out.

As for `COc1cc(C2Oc3c(OC)cc(/C=C/C(=O)NCCc4ccc(O)cc4)cc3C2C(=O)NCCc2ccc(O)cc2)ccc1O` (centres undefined), the T/C is 96 % of control (dose: 1.88 mg/kg/injection, schedule: Q01DX005 (ip), vehicle: Klucel (hydroxypropylcellulose) (HPC)); 94 % of control (dose: 3.75 mg/kg/injection, schedule: Q01DX005 (ip), vehicle: Klucel (hydroxypropylcellulose) (HPC)); 99 % of control (dose: 7.5 mg/kg/injection, schedule: Q01DX005 (ip), vehicle: Klucel (hydroxypropylcellulose) (HPC)); 101 % of control (dose: 15.0 mg/kg/injection, schedule: Q01DX005 (ip), vehicle: Klucel (hydroxypropylcellulose) (HPC)).

Take `Cc1ccc2c(c1)nc(Cl)n2Cc1ccccc1`: the T/C is 100 % of control under setting [1], 102 % of control under setting [2] and 102 % of control under setting [3].

As to `Nc1ccc2ccc(NS(=O)(=O)N3CCCCC3)cc2c1`, the T/C (dose: 25.0 mg/kg/injection, schedule: Q01DX005 (ip), vehicle: saline with Tween-80) was 108 % of control.

Consider `CC(C)NC(=O)OCc1c(COC(=O)NC(C)C)c(-c2ccc(Cl)cc2)n2c1CCC2`, for which the T/C (dose: 3.12 mg/kg/injection, schedule: Q01DX005 (ip), vehicle: distilled water + Tween-80) was 161 % of control; the T/C (dose: 6.25 mg/kg/injection, schedule: Q01DX005 (ip), vehicle: distilled water + Tween-80) is 152 % of control; the T/C (dose: 12.5 mg/kg/injection, schedule: Q01DX005 (ip), vehicle: distilled water + Tween-80) was 186 % of control and 190 % of control; the T/C (dose: 25.0 mg/kg/injection, schedule: Q01DX005 (ip), vehicle: distilled water + Tween-80) is 186 % of control; the T/C (dose: 50.0 mg/kg/injection, schedule: Q01DX005 (ip), vehicle: distilled water + Tween-80) was 110 % of control and 93 % of control.

Regarding `COC1/C=C/OC2(C)Oc3c(C)c(O)c4c(c3C2=O)C(N)=C(NC2CC2)C(=NC(=O)/C(C)=C\C=C\C(C)C(O)C(C)C(O)C(C)C(OC(C)=O)C1C)C4=O` (centres undefined), the T/C (dose: 25.0 mg/kg/injection, schedule: Q01DX009 (ip), vehicle: Klucel (hydroxypropylcellulose) (HPC)) is 102 % of control; the T/C under setting [4] is 103 % of control; the T/C under setting [5] was 119 % of control.

In the case of `O=C(NCCCl)Oc1ccc(Cl)cc1Cl`, the T/C is, setting by setting: (dose: 12.5 mg/kg/injection, schedule: Q01DX005 (ip), vehicle: Klucel (hydroxypropylcellulose) (HPC)) 100 % of control; (dose: 25.0 mg/kg/injection, schedule: Q01DX005 (ip), vehicle: Klucel (hydroxypropylcellulose) (HPC)) 106 % of control; under setting [1], 108 % of control and 113 % of control.

Regarding `O=Nc1[nH]c(NO)c2ccccc12`, the T/C is, setting by setting: under setting [6], 91 % of control; under setting [7], 87 % of control; under setting [8], 87 % of control; (dose: 400.0 mg/kg/injection, schedule: Q01DX009 (ip), vehicle: saline with Tween-80) 90 % of control.

In the case of `[F][Sn]([F])([c]1ccccc1)[c]1ccccc1`, under “dose: 1.56 mg/kg/injection, schedule: Q01DX009 (ip), vehicle: Klucel (hydroxypropylcellulose) (HPC)”, the T/C is 196 % of control.

Regarding `ICCCCCCCCCC[n+]1ccc2ccccc2c1`, the T/C (dose: 50.0 mg/kg/injection, schedule: Q01DX005 (ip), vehicle: saline with Tween-80) was 107 % of control.

In the case of `CC(C)COCCCN`, the T/C was 100 % of control (dose: 12.5 mg/kg/injection, schedule: Q01DX009 (ip), vehicle: saline); 91 % of control (dose: 12.5 mg/kg/injection, schedule: Q04DX003 (ip), vehicle: saline); 100 % of control under setting [9]; 100 % of control (dose: 25.0 mg/kg/injection, schedule: Q04DX003 (ip), vehicle: saline); 100 % of control under setting [10]; 91 % of control (dose: 50.0 mg/kg/injection, schedule: Q04DX003 (ip), vehicle: saline).

`CCCCCCCCCCCCSCN(CC)CC`: the T/C reads like this: under setting [9], 89 % of control; under setting [10], 99 % of control and 111 % of control; under setting [11], 101 % of control and 103 % of control.

For `CCCNC1(N(C)C)N=C(N(C)C)N=C(N(C)C)O1` (centres undefined), the T/C was 102 % of control under setting [12] and 95 % of control under setting [13].

For the molecule `Cc1cc2nc(SCC(N)=O)nn2c(C)n1`, the T/C reads like this: (dose: 60.0 mg/kg/injection, schedule: Q01DX005 (ip), vehicle: saline with Tween-80) 100 % of control; (dose: 120.0 mg/kg/injection, schedule: Q01DX005 (ip), vehicle: saline with Tween-80) 100 % of control; (dose: 240.0 mg/kg/injection, schedule: Q01DX005 (ip), vehicle: saline with Tween-80) 99 % of control.

`O=C(Nc1ccc(Cl)cc1)OCCSc1nc2ccccc2s1`: the T/C is 102 % of control under setting [6], 105 % of control under setting [7] and 93 % of control under setting [8].

Regarding `COc1ccccc1N1CCN(CCCNc2cc(=O)n(C)c(=O)n2C)CC1`, the T/C is 98 % of control under setting [4], 104 % of control under setting [5] and 108 % of control under setting [14].

In the case of `CC(C)(C)OC(=O)N(C=O)C(Cc1c[nH]c2ccccc12)C(=O)O` (centres undefined), the T/C under setting [1] was 100 % of control, the T/C under setting [2] is 103 % of control and the T/C under setting [3] was 99 % of control.

As to `C(=C\c1ccc2c(c1)OCO2)/c1ccnnc1`, the T/C is 100 % of control under setting [10]; 97 % of control under setting [11]; 100 % of control (dose: 200.0 mg/kg/injection, schedule: Q01DX009 (ip), vehicle: saline).

For the molecule `CCCC(O)CNCc1ccnc2ccc(OC)cc12` (centres undefined), the T/C is, setting by setting: under setting [12], 109 % of control; under setting [13], 98 % of control.

`CCN(CC)CCNC(=O)c1cc(Cl)c(N)cc1OC`: the T/C was 100 % of control and 105 % of control (dose: 3.12 mg/kg/injection, schedule: Q01DX005 (ip), vehicle: water); 108 % of control and 95 % of control (dose: 6.25 mg/kg/injection, schedule: Q01DX005 (ip), vehicle: water); 104 % of control and 105 % of control (dose: 12.5 mg/kg/injection, schedule: Q01DX005 (ip), vehicle: water); 104 % of control and 107 % of control (dose: 25.0 mg/kg/injection, schedule: Q01DX005 (ip), vehicle: water); 103 % of control and 111 % of control and 122 % of control (dose: 50.0 mg/kg/injection, schedule: Q01DX005 (ip), vehicle: water); 100 % of control and 106 % of control and 117 % of control (dose: 100.0 mg/kg/injection, schedule: Q01DX005 (ip), vehicle: water).

With `Cc1ccc(C(SCC(N)C(=O)O)(c2ccccc2)c2ccc(C)cc2)cc1` (centres undefined), the T/C (dose: 50.0 mg/kg/injection, schedule: Q04DX003 (ip), vehicle: saline with Tween-80) was 186 % of control; the T/C (dose: 100.0 mg/kg/injection, schedule: Q04DX003 (ip), vehicle: saline with Tween-80) was 200 % of control; the T/C (dose: 132.0 mg/kg/injection, schedule: Q04DX003 (ip), vehicle: saline with Tween-80) is 172 % of control; the T/C (dose: 200.0 mg/kg/injection, schedule: Q04DX003 (ip), vehicle: saline with Tween-80) is 177 % of control and 200 % of control; the T/C (dose: 300.0 mg/kg/injection, schedule: Q04DX003 (ip), vehicle: saline with Tween-80) was 263 % of control.

For `[N-]=[N+]=Nc1ccc2nc(N)nc(N)c2c1`, the T/C was 99 % of control (dose: 100.0 mg/kg/injection, schedule: Q01DX001 (ip), vehicle: Klucel (hydroxypropylcellulose) (HPC)) and 100 % of control (dose: 200.0 mg/kg/injection, schedule: Q01DX001 (ip), vehicle: Klucel (hydroxypropylcellulose) (HPC)).

As for `C1CCNCC1.COc1ccccc1C(=O)[CH-]C(=O)C(F)(F)F.COc1ccccc1C(=O)[CH-]C(=O)C(F)(F)F.COc1ccccc1C(=O)[CH-]C(=O)C(F)(F)F.COc1ccccc1C(=O)[CH-]C(=O)C(F)(F)F.[Eu+3]`, the T/C is, setting by setting: under setting [4], 94 % of control; under setting [14], 91 % of control.

On to `COc1cccc2c1C(=O)c1c(O)c3c(c(O)c1C2=O)C[C@@](O)(C(C)O)C[C@@H]3OC1CC(N2CCC(OC)CC2)C(O)C(C)O1` (some centres undefined), for which the T/C (dose: 0.78 mg/kg/injection, schedule: Q04DX003 (ip), vehicle: water) was 112 % of control; the T/C (dose: 1.56 mg/kg/injection, schedule: Q04DX003 (ip), vehicle: water) is 114 % of control; the T/C (dose: 3.12 mg/kg/injection, schedule: Q04DX003 (ip), vehicle: water) is 111 % of control and 117 % of control; the T/C (dose: 6.25 mg/kg/injection, schedule: Q04DX003 (ip), vehicle: water) was 188 % of control; the T/C (dose: 12.5 mg/kg/injection, schedule: Q04DX003 (ip), vehicle: water) is 158 % of control and 240 % of control; the T/C (dose: 25.0 mg/kg/injection, schedule: Q04DX003 (ip), vehicle: water) is 118 % of control.

For the origin of these results see PubChem BioAssay AID330 (DTP/NCI, 2004).
